Experimental data taken from ChEMBL document CHEMBL1155004, “Antiprion activity of functionalized 9-aminoacridines related to quinacrine” (Bioorg Med Chem, 2008).

Columns and labels:
[1] = Antiprion activity against scrapie prion protein RML infected mouse ScN2a cells assessed as reduction of scrapie prion protein accumulation by immunoblot analysis; assay type: cell-based
[2] = Selectivity index, ratio of maximal tolerant concentration for mouse ScN2a cells to EC50 for scrapie prion protein RML infected mouse ScN2a cells
[3] = Cytotoxicity against mouse ScN2a cells assessed as maximal tolerant concentration; assay type: cell-based; conditions: read-out: Activity
[4] = Antiprion activity against human prion Fukuoka-1 infected mouse F3 cells assessed as reduction of scrapie prion protein accumulation; assay type: cell-based; conditions: N2a #58 F3
ScN2a = experiment: Antiprion activity against scrapie prion protein RML infected mouse ScN2a cells assessed as drug level required for more than 99 percent reduction of scrapie prion protein by immunoblot analysis; assay type: cell-based
[5] = Antiprion activity against scrapie prion protein RML infected mouse Ch2 cells assessed as reduction of scrapie prion protein accumulation; assay type: cell-based
[6] = Antiprion activity against scrapie prion protein 22L infected mouse N167 cells assessed as reduction of scrapie prion protein accumulation; assay type: cell-based
Ch2 = experiment: Antiprion activity against scrapie prion protein RML infected mouse Ch2 cells assessed as drug level required for more than 99 percent reduction of scrapie prion protein; assay type: cell-based
N167 = experiment: Antiprion activity against scrapie prion protein 22L infected mouse N167 cells assessed as drug level required for more than 99 percent reduction of scrapie prion protein; assay type: cell-based
N2a #58 F3 = experiment: Antiprion activity against human prion Fukuoka-1 infected mouse F3 cells assessed as drug level required for more than 99 percent reduction of scrapie prion protein; assay type: cell-based

COc1ccc2nc3cc(Cl)ccc3c(Nc3cccc(N4CCCC4)c3)c2c1
EC50 [1]: 1060 nM
Selectivity Index [2]: 2
MNTC [3]: 2000 nM

CCN(CC)CCCC(C)Nc1c2ccc(Cl)cc2nc2ccc(OC)cc12 (stereo not given) [QUINACRINE]
EC50 [4]: 1880 nM
EC50 [1]: 230 nM
Activity (ScN2a): 0.8 µM
EC50 [5]: 460 nM
Selectivity Index [2]: 11
EC50 [6]: 590 nM
Activity (Ch2): 2 µM
MNTC [3]: 2500 nM

COc1ccc2nc3cc(Cl)ccc3c(NC3CCN(Cc4ccccc4)CC3)c2c1
EC50 [4]: 800 nM
EC50 [1]: 420 nM
Activity (N167): 1.5 µM
Activity (ScN2a): 1 µM
EC50 [5]: 410 nM
Selectivity Index [2]: 5
EC50 [6]: 490 nM
Activity (Ch2): 1 µM
MNTC [3]: 2000 nM

CCN(CC)CCCCNc1c2ccc(Cl)cc2nc2ccc(OC)cc12
EC50 [1]: 150 nM
Activity (ScN2a): 0.4 µM
Selectivity Index [2]: 7
MNTC [3]: 1000 nM

CCN(CC)c1ccc(Nc2c3ccccc3nc3ccccc23)cc1
EC50 [1]: 240 nM
Selectivity Index [2]: 2
MNTC [3]: 400 nM

COc1ccc2nc3cc(Cl)ccc3c(NCCCN(C)C)c2c1
EC50 [1]: 110 nM
Activity (ScN2a): 0.3 µM
Selectivity Index [2]: 9
MNTC [3]: 1000 nM

CCN(CC)CCNc1c2ccc(Cl)cc2nc2ccc(OC)cc12
EC50 [1]: 21 nM
Activity (ScN2a): 0.1 µM
EC50 [5]: 700 nM
Selectivity Index [2]: 190
Activity (Ch2): 3 µM
MNTC [3]: 4000 nM

COc1ccc2nc3cc(Cl)ccc3c(Nc3ccc(N4CCCCC4)cc3)c2c1
EC50 [1]: 4240 nM
Activity (ScN2a): 7 µM
Selectivity Index [2]: 2
EC50 [6]: 4290 nM
MNTC [3]: 9000 nM

COc1ccc2nc3cc(Cl)ccc3c(Nc3cccc(N4CCN(C)CC4)c3)c2c1
EC50 [4]: 1490 nM
EC50 [1]: 290 nM
Activity (N167): 3 µM
Activity (ScN2a): 1 µM
EC50 [5]: 380 nM
Selectivity Index [2]: 14
Activity (N2a #58 F3): 3.5 µM
EC50 [6]: 1190 nM
Activity (Ch2): 1.5 µM
MNTC [3]: 4000 nM

COc1ccc2nc3cc(Cl)ccc3c(N)c2c1
EC50 [1]: 130 nM
Activity (ScN2a): 0.4 µM
Selectivity Index [2]: 30
MNTC [3]: 4000 nM

CCN(CC)c1cccc(Nc2c3ccc(Cl)cc3nc3ccc(OC)cc23)c1
EC50 [1]: 1010 nM
Activity (ScN2a): 2.5 µM
Selectivity Index [2]: 3
MNTC [3]: 3000 nM

COc1ccc2nc3cc(Cl)ccc3c(Nc3cccc(N4CCCCC4)c3)c2c1
EC50 [1]: 180 nM
Activity (ScN2a): 0.5 µM
Selectivity Index [2]: 22
MNTC [3]: 4000 nM

CCN(CC)c1ccc(Nc2c3ccc(Cl)cc3nc3ccc(OC)cc23)cc1
EC50 [1]: 480 nM
Activity (ScN2a): 1.5 µM
Selectivity Index [2]: 4
MNTC [3]: 2000 nM

COc1ccc2nc3cc(Cl)ccc3c(Nc3cccc(N4CCOCC4)c3)c2c1
EC50 [1]: 900 nM
Selectivity Index [2]: 3
MNTC [3]: 3000 nM

COc1ccc2nc3cc(Cl)ccc3c(Nc3ccccc3N(C)C)c2c1
EC50 [1]: 250 nM
Activity (ScN2a): 0.8 µM
Selectivity Index [2]: 20
MNTC [3]: 5000 nM

COc1ccc2nc3cc(Cl)ccc3c(Nc3ccc(N4CCOCC4)cc3)c2c1
EC50 [1]: 1280 nM
Activity (ScN2a): 3 µM
Selectivity Index [2]: 3
MNTC [3]: 4000 nM

COc1ccc2nc3cc(Cl)ccc3c(Nc3ccc(N4CCN(C)CC4)cc3)c2c1
EC50 [4]: 680 nM
EC50 [1]: 100 nM
Activity (N167): 1.5 µM
Activity (ScN2a): 0.4 µM
EC50 [5]: 220 nM
Selectivity Index [2]: 25
Activity (N2a #58 F3): 1.5 µM
EC50 [6]: 420 nM
Activity (Ch2): 1.2 µM
MNTC [3]: 2500 nM

CCN(CC)CCCNc1c2ccc(Cl)cc2nc2ccc(OC)cc12
EC50 [1]: 140 nM
Activity (ScN2a): 0.3 µM
Selectivity Index [2]: 7
MNTC [3]: 1000 nM

COc1ccc2nc3cc(Cl)ccc3c(Nc3cccc(N(C)C)c3)c2c1
EC50 [1]: 320 nM
Selectivity Index [2]: 6
MNTC [3]: 2000 nM

COc1ccc2nc3cc(Cl)ccc3c(Nc3ccc(N(C)C)cc3)c2c1
EC50 [1]: 510 nM
Selectivity Index [2]: 4
MNTC [3]: 2000 nM

Nc1c2ccccc2nc2ccccc12 [AMINACRINE]
MNTC [3]: 2500 nM

COc1ccc2nc3cc(Cl)ccc3c(N3CCN(C)CC3)c2c1
EC50 [1]: 360 nM
Activity (ScN2a): 1.8 µM
EC50 [5]: > 2000 nM
Selectivity Index [2]: 11
MNTC [3]: 4000 nM
